Assay [1] has as its system Mus musculus. Briefly: Percent of Pu(IV) retained after 24 hours in liver of mice under the effect of 30 umol/kg (i.p.) of ligand administered 1 hr after iv injection of Pu(IV) citrate. It is filed as functional.
Assay [2] concerns Mus musculus. As to the kind of experiment: Percent of Pu(IV) excreted after 24 hours in GI contents and feces under the effect of 30 umol/kg (i.p.) of ligand administered 1 hr after iv injection of Pu(IV) citrate. Format: functional.
In assay [3] the test system is Mus musculus. As to the kind of experiment: % Pu(IV) retained after 24 hours in kidneys of mice under the effect of 30uM/kg(po, gastric intubation) of ligand administered 3 min after iv injection of Pu(IV) citrate. It is filed as functional, Kidney.
The subject of assay [4] is Mus musculus. As to the kind of experiment: Percent of Pu(IV) retained after 24 hours in skeleton of mice under the effect of 30 umol/kg (i.p.) of ligand administered 1 hr after iv injection of Pu(IV) citrate. Format: functional.
Assay [5] has as its system Mus musculus. As to the kind of experiment: Percent of Pu(IV) retained after 24 hours in kidneys of mice under the effect of 30 umol/kg (i.p.) of ligand administered 1 hr after iv injection of Pu(IV) citrate. Format: functional, Kidney.
The subject of assay [6] is Mus musculus. As to the kind of experiment: Percent of Pu(IV) excreted after 24 hours in urine under the effect of 30 umol/kg (i.p.) of ligand administered 1 hr after iv injection of Pu(IV) citrate. It is filed as functional.
The test system of assay [7] is Mus musculus. Briefly: %Pu(IV) excreted after 24 hr in GI contents and feces under the effect of 30uM/kg(po, gastric intubation) of ligand administered 3 min after iv injection of Pu(IV) citrate. It is filed as functional.
Assay [8] has as its system Mus musculus. As to the kind of experiment: % Pu(IV) retained after 24 hours in soft tissue of mice under the effect of 30uM/kg(po, gastric intubation) of ligand administered 3 min after iv injection of Pu(IV) citrate. It is filed as functional.
The test system of assay [9] is Mus musculus. As to the kind of experiment: % Pu(IV) excreted at 0-4 hr in urine under the effect of 30uM/kg(po, gastric intubation) of ligand administered 3 min after iv injection of Pu(IV) citrate. Format: functional.
The subject of assay [10] is Mus musculus. Briefly: Percent of Pu(IV) retained after 24 hours in soft tissue of mice under the effect of 30 umol/kg (i.p.) of ligand administered 1 hr after iv injection of Pu(IV) citrate. It is filed as functional.
Assay [11] concerns Mus musculus. Briefly: % Pu(IV) retained after 24 hours in skeleton of mice under the effect of 30uM/kg(po, gastric intubation) of ligand administered 3 min after iv injection of Pu(IV) citrate. It is filed as functional.
Assay [12] deals with Mus musculus. As to the kind of experiment: % Pu(IV) retained after 24 hours in liver of mice under the effect of 30uM/kg(po, gastric intubation) of ligand administered 3 min after iv injection of Pu(IV) citrate. It is filed as functional.
Assay [13] relates to Mus musculus. Briefly: % Pu(IV) excreted at 4-24 hr in urine under the effect of 30uM/kg(po, gastric intubation) of ligand administered 3 min after iv injection of Pu(IV) citrate.
Assay [14] deals with Mus musculus. As to the kind of experiment: Percent of Pu(IV) retained after 24 hours in whole body of mice under the effect of 30 umol/kg (i.p.) of ligand administered 1 hr after iv injection of Pu(IV) citrate. It is filed as functional.
The subject of assay [15] is Mus musculus. As to the kind of experiment: % Pu(IV) retained after 24 hr in whole body of mice under the effect of 30uM/kg(po, gastric intubation) of ligand administered 3 min after iv injection of Pu(IV) citrate. Format: functional.

On to `O=C(NCCCN(CCCCN(CCCNC(=O)c1cccc(=O)n1O)C(=O)c1cccc(=O)n1O)C(=O)c1cccc(=O)n1O)c1cccc(=O)n1O`, for which the ID with Mus musculus [1] was 8.9%; with Mus musculus [2], 57%; with Mus musculus [3], 0.1%; with Mus musculus [4], 7.5%; in the assay with Mus musculus [5], 0.2%; in the assay on Mus musculus [6] it was 25%. Besides, the ID in the assay with Mus musculus [7] was determined as 51%; in the assay with Mus musculus [8], 13%; in the assay on Mus musculus [9], 23%; in the assay with Mus musculus [10] it was 1.6%; in the assay on Mus musculus [11] it was 12%; in the assay with Mus musculus [12] it was 11%. The ID with Mus musculus [13] is 2.7%; with Mus musculus [14], 18%; in the assay with Mus musculus [15] it was 24%.
For `Cn1ccc(C(=O)NCCN(CCNC(=O)c2ccn(C)c(=O)c2O)CCN(CCNC(=O)c2ccn(C)c(=O)c2O)CCNC(=O)c2ccn(C)c(=O)c2O)c(O)c1=O`, the ID is 3.8% in the assay with Mus musculus [1]; 45% in the assay on Mus musculus [2]; 0.4% with Mus musculus [3]; 11% with Mus musculus [4]; 1.3% in the assay with Mus musculus [5]; 36% with Mus musculus [6]. For the same molecule, the ID came out at 38% in the assay on Mus musculus [7]; 4% in the assay with Mus musculus [8]; 12% in the assay on Mus musculus [9]; 2.8% in the assay on Mus musculus [10]; 11% with Mus musculus [11]; 7.6% in the assay with Mus musculus [12]. In addition, the values for the ID with Mus musculus [13], with Mus musculus [14] and with Mus musculus [15] were 27%, 19% and 23%, respectively.
For the molecule `CC(=O)N(O)CCCCCNC(=O)CCC(=O)N(O)CCCCCNC(=O)CCC(=O)N(O)CCCCCNC(=O)c1ccn(C)c(=O)c1O`, the ID in the assay on Mus musculus [1] amounted to 13%; in the assay with Mus musculus [2] it was 26%; with Mus musculus [3] it was 2.4%; in the assay with Mus musculus [4] it was 17%; in the assay on Mus musculus [5], 3%; with Mus musculus [6], 21%. The ID came to 17% with Mus musculus [7]; 15% in the assay on Mus musculus [8]; 2.4% with Mus musculus [9]; 19% in the assay on Mus musculus [10]; 20% in the assay on Mus musculus [11]; 22% in the assay with Mus musculus [12]. Moreover, the results for the ID with Mus musculus [13], with Mus musculus [14] and in the assay with Mus musculus [15] were 20%, 53% and 60%, respectively.
In the case of `Cn1ccc(C(=O)NCCCCNC(=O)c2ccn(C)c(=O)c2O)c(O)c1=O`, the ID with Mus musculus [1] amounted to 3.7%; in the assay with Mus musculus [2], 63%; with Mus musculus [3], 0.5%; with Mus musculus [4] it was 11%; with Mus musculus [5], 0.4%; with Mus musculus [6], 19%. In addition, the ID in the assay with Mus musculus [7] amounted to 11%; in the assay on Mus musculus [8], 3.2%; with Mus musculus [9] it was 26%; in the assay with Mus musculus [10], 1.9%; with Mus musculus [11], 17%; in the assay with Mus musculus [12] it was 34%. Also, the ID in the assay with Mus musculus [13] was 8.8%; in the assay on Mus musculus [14] it was 17%; with Mus musculus [15], 55%.
As to `Cn1ccc(C(=O)NCCOCCNC(=O)c2ccn(C)c(=O)c2O)c(O)c1=O`, the ID in the assay with Mus musculus [1] stood at 2.7%; with Mus musculus [2], 56%; with Mus musculus [3] it was 0.8%; with Mus musculus [4], 11%; with Mus musculus [5] it was 0.3%; in the assay with Mus musculus [6] it was 28%. In addition, the ID in the assay with Mus musculus [7] stood at 46%; in the assay with Mus musculus [8], 2.9%; in the assay on Mus musculus [9], 14%; with Mus musculus [10], 1.7%; in the assay with Mus musculus [11] it was 18%; in the assay with Mus musculus [12], 11%. For the same molecule, the ID is 7.8% in the assay on Mus musculus [13], 16% in the assay with Mus musculus [14] and 34% with Mus musculus [15].

For the origin of these results see ChEMBL document CHEMBL1128431, “Specific sequestering agents for the actinides. 28. Synthesis and initial evaluation of multidentate 4-carbamoyl-3-hydroxyl-1-methyl-2(1H)-pyridinone ligands for in vivo plutonium(IV) chelation” (1995).
